Like-named read-outs stand apart in the source and are kept apart here.

Results on 19 compounds are retold here after patent EP3623369A1, “NOVEL MORPHOLINYL AMINE COMPOUNDS FOR THE TREATMENT OF AUTOIMMUNE DISEASE” (F. Hoffmann-La Roche AG, priority 2018, dated 2020).

Data set [1] is described as follows: Human microsome stability assay. Format: in vitro ADME. As to conditions: human liver microsomes, 1 µM test compound, 0.5 mg/mL protein, 37°C, up to 30 minutes. As for the experimental part:
Human microsome stability assay
The human microsomal stability assay is used for early assessment of metabolic stability of a test compound in human liver microsomes.
Human liver microsomes (Cat.NO.: 452117, Corning, USA;Cat.NO.:H2610, Xenotech, USA) were preincubated with test compound for 10 minutes at 37°C in 100 mM potassium phosphate buffer, pH 7.4. The reactions were initiated by adding NADPH regenerating system. The final incubation mixtures contained 1 µM test compound, 0.5 mg/mL liver microsomal protein, 1 mM MgCl2, 1 mM NADP, 1 unit/mL isocitric dehydrogenase and 6 mM isocitric acid in 100 mM potassium phosphate buffer, pH 7.4. After incubation times of 0, 3, 6, 9, 15 and 30 minutes at 37°C, 300 µL of cold acetonitrile (including internal standard) was added to 100 µL incubation mixture to terminate the reaction. Following precipitation and centrifugation, the amount of compound remaining in the samples were determined by LC-MS/MS. Controls of no NADPH regenerating system at zero and 30 minutes were also prepared and analyzed. […] Table 3. Human liver microsome stability of the compounds of present invention

Data set [2] has as its target T1, hTLR7 (Homo sapiens, UniProt Q9NYK1).
T1 sequence (Q9NYK1 27-1049): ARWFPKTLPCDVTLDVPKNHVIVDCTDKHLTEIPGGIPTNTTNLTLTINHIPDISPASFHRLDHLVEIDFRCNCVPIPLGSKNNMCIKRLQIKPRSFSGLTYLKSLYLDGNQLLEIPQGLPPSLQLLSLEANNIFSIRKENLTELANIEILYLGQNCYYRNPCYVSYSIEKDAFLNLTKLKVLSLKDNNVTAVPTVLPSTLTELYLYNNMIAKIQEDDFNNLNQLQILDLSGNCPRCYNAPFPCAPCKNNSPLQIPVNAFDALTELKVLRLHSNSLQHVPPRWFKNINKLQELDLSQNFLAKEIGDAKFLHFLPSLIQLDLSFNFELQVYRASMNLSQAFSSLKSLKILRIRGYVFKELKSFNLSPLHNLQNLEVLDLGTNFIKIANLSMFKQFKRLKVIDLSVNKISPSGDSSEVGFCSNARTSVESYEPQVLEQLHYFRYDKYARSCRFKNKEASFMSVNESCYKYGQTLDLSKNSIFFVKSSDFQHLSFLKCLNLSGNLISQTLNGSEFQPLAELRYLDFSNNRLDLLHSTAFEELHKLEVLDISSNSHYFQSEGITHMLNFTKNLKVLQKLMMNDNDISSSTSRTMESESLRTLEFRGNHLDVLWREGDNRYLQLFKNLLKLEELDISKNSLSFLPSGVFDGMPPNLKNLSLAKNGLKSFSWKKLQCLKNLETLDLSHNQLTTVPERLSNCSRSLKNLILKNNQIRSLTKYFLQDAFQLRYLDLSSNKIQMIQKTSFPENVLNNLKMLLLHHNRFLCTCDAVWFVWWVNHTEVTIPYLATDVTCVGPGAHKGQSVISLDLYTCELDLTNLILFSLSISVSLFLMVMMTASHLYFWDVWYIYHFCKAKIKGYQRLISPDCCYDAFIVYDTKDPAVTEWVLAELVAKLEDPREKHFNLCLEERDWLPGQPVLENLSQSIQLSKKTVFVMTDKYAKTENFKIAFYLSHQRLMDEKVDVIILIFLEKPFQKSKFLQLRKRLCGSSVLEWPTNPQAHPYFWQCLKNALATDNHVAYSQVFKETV
The data set can be described thus: HEK293-Blue-hTLR-7 cells assay (SEAP reporter, R848 stimulation). The format is cell-based. As to conditions: HEK293-Blue-hTLR7 cells, R848, 20 hrs; 0.003 is the lowest tested concentration; read-out: HEK/hTLR7 IC50. The method, boiled down:
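HEK293-Blue-hTLR7 cells carry an NF-κB/AP-1-driven SEAP reporter and were stimulated with R848 in the presence of serially diluted compound (1% DMSO final) for 20 hrs at 37 °C. Supernatant SEAP was measured with QUANTI-Blue after 2 hrs at 37 °C, reading absorbance at 620∼655 nm.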

For data set [3], the target named is T1, hTLR7. Further details: host or cells: HEK. Conditions: data disclosed in US20150105370; read-out: HEK/hTLR7 IC50; cited from earlier work.

For the compound `C[C@@H]1CN(c2ccc(C#N)c3ncccc23)C[C@H](CNCc2ccccc2)O1` [ER-886509, reference compound], the “Clearance of Human microsome” value in data set [1] came out at 15.2 mL/min/kg. Besides, the results for the IC50 in data set [2] and in data set [3] were 88 nM and 44 nM, respectively.

For the compound `C[C@@H]1CN(c2ccc(C#N)n3nccc23)C[C@H](CNCc2ccc(N3CCNCC3)cc2)O1` [Example 16, 4-[(2R,6S)-2-methyl-6-[[(4-piperazin-1-ylphenyl)methylamino]methyl]morpholin-4-yl]pyrazolo[1,5-a]pyridine-7-carbonitrile], the “Clearance of Human microsome” value in data set [1] was found to be 7.31 mL/min/kg. Also, the IC50 in data set [2] amounted to 104 nM.

`C[C@@H]1CN(c2ccc(C#N)c3ncccc23)C[C@H](CN2CCc3cc(N4CCNCC4)ccc3C2)O1` [Example 19, 5-[(2R,6S)-2-methyl-6-[(6-piperazin-1-yl-3,4-dihydro-1H-isoquinolin-2-yl)methyl]morpholin-4-yl]quinoline-8-carbonitrile]: the “Clearance of Human microsome” value in data set [1] worked out at 6.17 mL/min/kg. In addition, in data set [2], the IC50 amounted to 11 nM.

As for `C[C@@H]1CN(c2ccc(C#N)c3ncccc23)C[C@H](CN2Cc3ccc(N4CCNCC4)cc3C2)O1` [Example 21, 5-[(2R,6S)-2-methyl-6-[(5-piperazin-1-ylisoindolin-2-yl)methyl]morpholin-4-yl]quinoline-8-carbonitrile], the “Clearance of Human microsome” value in data set [1] is reported as 6.15 mL/min/kg. In addition, the IC50 in data set [2] was determined as 9 nM.

`C[C@@H]1CN(c2ccc(C#N)c3ncccc23)C[C@H](CN2Cc3ccc(N4CC5(CCN5)C4)cc3C2)O1` [Example 55, 5-[(2S,6R)-2-[[5-(1,6-diazaspiro[3.3]heptan-6-yl)isoindolin-2-yl]methyl]-6-methyl-morpholin-4-yl]quinoline-8-carbonitrile]: in data set [1], the “Clearance of Human microsome” value is reported as 7.09 mL/min/kg. In addition, the IC50 in data set [2] is 80 nM.

Turning to `C[C@@H]1CN(c2ccc3c(c2)CN(C[C@H]2CN(c4ccc(C#N)c5ncccc45)C[C@@H](C)O2)C3)CCN1` [Example 62, 5-[(2R,6S)-2-methyl-6-[[5-[(3R)-3-methylpiperazin-1-yl]isoindolin-2-yl]methyl]morpholin-4-yl] quinoline-8-carbonitrile], in data set [1], the “Clearance of Human microsome” value is recorded as 6.39 mL/min/kg. The IC50 in data set [2] came out at 26 nM.

Consider `C[C@@H]1CN(c2ccc(C#N)c3ncccc23)C[C@H](CN2Cc3ccc(N4CCNCC4)cc3C(O)C2)O1` (stereo partly drawn) [Example 75, 5-[(2S,6R)-2-[(4-hydroxy-6-piperazin-1-yl-3,4-dihydro-1H-isoquinolin-2-yl)methyl]-6-methyl-morpholin-4-yl]quinoline-8-carbonitrile], for which the IC50 in data set [2] is 42 nM.

In the case of `C[C@@H]1CN(c2ccc(C#N)c3ncccc23)C[C@H](CN2Cc3ccc(N4CCNCC4C(F)F)cc3C2)O1` (stereo partly drawn) [Example 76, 5-[(2S,6R)-2-[[5-[2-(difluoromethyl)piperazin-1-yl]isoindolin-2-yl]methyl]-6-methyl-morpholin-4-yl]quinoline-8-carbonitrile], in data set [2], the IC50 came out at 9 nM.

On to `C[C@@H]1CN(c2ccc(C#N)c3ncccc23)C[C@H](CN2Cc3ccc(N4CC(N)C4)cc3C2)O1` [Example 77, 5-[(2S,6R)-2-[[5-(3-aminoazetidin-1-yl)isoindolin-2-yl]methyl]-6-methyl-morpholin-4-yl]quinoline-8-carbonitrile], for which the IC50 in data set [2] stood at 32 nM.

Turning to `CC1CNCCN1c1ccc2c(c1)CN(C[C@H]1CN(c3ccc(C#N)c4ncccc34)C[C@@H](C)O1)C2` (stereo partly drawn) [Example 78, 5-[(2R,6S)-2-methyl-6-[[5-(2-methylpiperazin-1-yl)isoindolin-2-yl]methyl]morpholin-4-yl] quinoline-8-carbonitrile], the IC50 in data set [2] came out at 11 nM.

In the case of `C[C@@H]1CN(c2ccc(C#N)c3ncccc23)C[C@H](CN2CCc3nc(N4CCNCC4)ccc3C2)O1` [Example 79, 5-[(2R,6S)-2-methyl-6-[(2-piperazin-1-yl-7,8-dihydro-5H-1,6-naphthyridin-6-yl)methyl]morpholin-4-yl]quinoline-8-carbonitrile], the IC50 in data set [2] worked out at 15 nM.

For `C[C@@H]1CN(c2ccc(C#N)c3ncccc23)C[C@H](CN2Cc3ccc(N4CCNCC4)nc3C2)O1` [Example 80, 5-[(2R,6S)-2-methyl-6-[(2-piperazin-1-yl-5,7-dihydropyrrolo[3,4-b]pyridin-6-yl)methyl]morpholin-4-yl]quinoline-8-carbonitrile], in data set [2], the IC50 was determined as 7 nM.

Turning to `C[C@@H]1CN(c2ccc(C#N)c3ncccc23)C[C@H](CN2Cc3ccc(N4CCNC[C@@H]4CO)cc3C2)O1` [Example 82, 5-[(2S,6R)-2-[[5-[(2R)-2-(hydroxymethyl)piperazin-1-yl]isoindolin-2-yl]methyl]-6-methyl-morpholin-4-yl]quinoline-8-carbonitrile], the IC50 in data set [2] was 47 nM.

As to `C[C@@H]1CN(c2ccc(C#N)c3ncccc23)C[C@H](CN2Cc3ccc(N4CCNC[C@H]4CO)cc3C2)O1` [Example 83, 5-[(2S,6R)-2-[[5-[(2S)-2-(hydroxymethyl)piperazin-1-yl]isoindolin-2-yl]methyl]-6-methyl-morpholin-4-yl]quinoline-8-carbonitrile], the IC50 in data set [2] amounted to 34 nM.

Take `C[C@@H]1CN(c2ccc(C#N)c3nccnc23)C[C@H](CNCc2ccc(N3CCNCC3)cc2)O1` [Example 84, 8-[(2R,6S)-2-methyl-6-[[(4-piperazin-1-ylphenyl)methylamino]methyl]morpholin-4-yl]quinoxaline-5-carbonitrile]: in data set [2], the IC50 came out at 12 nM.

For `C[C@@H]1CN(c2ccc(C#N)c3ncccc23)C[C@H](CNCc2ccc(N3CCNCC3)cc2)O1` [Example 86, 5-[(2R,6S)-2-methyl-6-[[(4-piperazin-1-ylphenyl)methylamino]methyl]morpholin-4-yl] quinoline-8-carbonitrile], in data set [2], the IC50 came to 15 nM.

As to `C[C@@H]1CN(c2ccc(C#N)n3nccc23)C[C@H](CN2CCc3cnccc3C2)O1` [Example R1, 4-[(2S,6R)-2-(3,4-dihydro-1H-2,6-naphthyridin-2-ylmethyl)-6-methyl-morpholin-4-yl]pyrazolo[1,5-a]pyridine-7-carbonitrile, reference compound], in data set [2], the IC50 was 550 nM.

In the case of `C[C@@H]1CN(c2ccc(C#N)n3nccc23)C[C@H](CN2Cc3ccncc3C2)O1` [Example R2, 4-[(2S,6R)-2-(1,3-dihydropyrrolo[3,4-c]pyridin-2-ylmethy1)-6-methyl-morpholin-4-yl]pyrazolo[1,5-a]pyridine-7-carbonitrile, reference compound], the IC50 in data set [2] stood at 722 nM.

Take `C[C@@H]1CN(c2ccc(C#N)c3ncccc23)C[C@H](CN2Cc3ccccc3C2)O1` [Example R3, 5-[(2S,6R)-2-(isoindolin-2-ylmethyl)-6-methyl-morpholin-4-yl]quinoline-8-carbonitrile, reference compound]: in data set [1], the “Clearance of Human microsome” value is listed as 15.4 mL/min/kg. Further, the IC50 in data set [2] stood at 186 nM.
